# Laboratory results: PMC5464773 (eLife, 2017)
# Peptide text beside a SMILES is read from it. * marks the point of attachment. Acryloyl = C=CC(=O)*
# Tests used:
# Experiment in all cases: BH3 profiling, mitochondrial depolarization (JC-1) in permeabilized cells
# Format in all cases: cell-based
# [1] = test system: BCR-ABL-expressing B-lineage acute lymphoblastic leukemia cells dependent on Bfl-1; set-up: key to Bottom (best-fit value) / Top (best-fit value): % depolarization, normalized to DMSO (0) and FCCP (100) controls; settings: BH3 profiling fits Bfl-1, sigmoidal dose-response (variable slope)
# Procedure: (§1) Cell line identities were confirmed by STR profiling.
# (§2) Peptides were titrated by serial dilution in MEB buffer (150 mM Mannitol, 10 mM HEPES-KOH pH 7.5, 50 mM KCl, 0.02 mM EGTA, 0.02 mM EDTA, 0.1% BSA and 5 mM Succinate) containing 20 μg/mL oligomycin, 50 μg/mL digitonin, 2 μM JC-1 and 10 mM 2-mercaptoethanol in 384-well plates. Controls for no depolarization (1% DMSO) and complete depolarization with the mitochondrial oxidative phosphorylation uncoupler FCCP (20 μM) were included for data normalization. […] 15 μL of cell suspension was added to each well containing 15 μL of treatment solution. […] To produce percent depolarization, the area under the resultant curve was calculated and normalized to the assay controls. Peptide titration curves were fit to sigmoidal dose-response curves using Graphpad PRISM seven to obtain EC50 values.
# [2] = test system: BCR-ABL-expressing B-lineage acute lymphoblastic leukemia cells dependent on Bcl-xL; settings: BH3 profiling fits Bcl-xL, sigmoidal dose-response (variable slope), fit ambiguous
# Procedure: as §1, §2
# [3] = test system: BCR-ABL-expressing B-lineage acute lymphoblastic leukemia cells dependent on Mcl-1; settings: BH3 profiling fits Mcl-1, sigmoidal dose-response (variable slope)
# Procedure: as §1, §2
structure (smiles),measurement,setting,value
C=CC(=O)N[C@@H](Cc1c[nH]c2ccccc12)C(=O)N[C@H](C(=O)N[C@@H](CCCNC(=N)N)C(=O)N[C@@H](CCC(=O)O)C(=O)N[C@H](C(=O)N[C@@H](C)C(=O)N[C@@H](C)C(=O)NCC(=O)N[C@@H](CC(C)C)C(=O)N[C@@H](CCCNC(=N)N)C(=O)N[C@@H](CCCNC(=N)N)C(=O)N[C@@H](C)C(=O)N[C@@H](C)C(=O)N[C@@H](CC(=O)O)C(=O)N[C@@H](CC(=O)O)C(=O)N[C@H](C(=O)N[C@@H](CC(N)=O)C(=O)N[C@@H](C)C(=O)N[C@@H](CCC(N)=O)C(=O)N[C@H](C(=O)N[C@@H](CCC(=O)O)C(=O)N[C@@H](CCCNC(=N)N)C(N)=O)C(C)C)C(C)C)[C@@H](C)CC)C(C)C [FS2gX] (Acryloyl-WVREIAAGLRRAADDVNAQVER-NH2),HillSlope (best-fit value),[1],0.7987
same,Bottom (best-fit value),[1]; constraint Bottom < 5,-3.828
same,Top (best-fit value),[1]; constraint Top > 78,78.27
same,LogEC50 (best-fit value),"[1]; x = Log [Peptide] M, 55-56 Y values analyzed",-8.01
same,Bottom (best-fit value),[2]; constraint Bottom < 5,~ -1647
same,Top (best-fit value),[2]; constraint Top > 78,~ 78
same,HillSlope (best-fit value),[2],~ -0.02698
same,HillSlope (best-fit value),[3],0.1762
same,Bottom (best-fit value),[3]; constrained (0 < Bottom < 5 or Bottom < 5),-6.58
same,Top (best-fit value),[3]; constrained (Top < 100 or Top > 78),~ 78
